Results taken from publication PMC6413952, “Discovery of ABBV-4083, a novel analog of Tylosin A that has potent anti-Wolbachia and anti-filarial activity” (PLoS Neglected Tropical Diseases, 2019).

Key:
[1] = test system: Wolbachia pipientis in Aedes albopictus C6/36 (wAlbB) insect cells; experiment: A·WOL Wolbachia-infected Aedes albopictus (C6/36 wAlbB) 7-day cell-based assay, high content imaging; details: for activity against Wolbachia: commercially available 16-membered macrolides
From the text: Compounds were screened for anti-Wolbachia activity in vitro in the A·WOL-validated Wolbachia-infected Aedes albopictus (C6/36 wAlbB) 7-day cell-based assay which utilizes a 384-well format assay with high content imaging (HCI) (Operetta) as described previously.
We began our work by selecting a diverse and representative sample of the AbbVie antibiotics collection (129 compounds) for single-point testing against Wolbachia pipientis in an insect cell line. […] While TylA has a long history of use in multiple animal species, it has never been studied in humans; and its activity against Wolbachia has not previously been reported.

[2] = Rat oral pharmacokinetic study (plasma AUC, C8hr); assay type: in vivo, Sprague-Dawley rats; details: for C*8hr / C*8hr/ EC50 / AUC*/EC50: PO rats; for AUC* parent / AUC* TylA (metabolite): PO, Sprague-Dawley rats; for C*8hr/ EC50: potency-weighted 8-hr drug level; for AUC*/EC50: potency-weighted AUC; for AUC* TylA (metabolite): primary metabolite TylA; for improvement in plasma drug levels (AUC) over TylA / drug levels relative to 2'-OH partners 5c and 5d: rats
Protocol: PO doses were administrated by oral gavage, IP doses by intraperitoneal injection to BALB/c mice or Sprague-Dawley rats (Charles River Laboratories, USA). Serial blood samples collected into EDTA anticoagulant for plasma concentration analysis were obtained from each animal after dosing. EDTA preserved plasma samples were extracted by protein precipitation with acetonitrile fortified with internal standards. The supernatant was injected into an HPLC-MS/MS system for separation and quantitation. Detection was accomplished using a triple quadrupole mass spectrometer operated either in electrospray or atmospheric chemical ionization (APCI) mode. The area under the plasma concentration-time curve (AUC) was calculated using the linear trapezoidal rule.

[3] = test system: MDR-MDCK monolayer; assay type: in vitro ADME, canine; details: MDCK-MDR1
From the text: Drug levels in the IP arm of this study were >30-fold higher than those achieved when the drug is given PO. […] Therefore, improving drug absorption by increasing permeability became a primary goal for our lead-optimization studies.

[4] = Mouse pharmacokinetic study (plasma levels, IP or PO); assay type: in vivo, BALB/c mice
Protocol: PO doses were administrated by oral gavage, IP doses by intraperitoneal injection to BALB/c mice or Sprague-Dawley rats (Charles River Laboratories, USA). Serial blood samples collected into EDTA anticoagulant for plasma concentration analysis were obtained from each animal after dosing. EDTA preserved plasma samples were extracted by protein precipitation with acetonitrile fortified with internal standards. The supernatant was injected into an HPLC-MS/MS system for separation and quantitation. Detection was accomplished using a triple quadrupole mass spectrometer operated either in electrospray or atmospheric chemical ionization (APCI) mode. The area under the plasma concentration-time curve (AUC) was calculated using the linear trapezoidal rule. […] Plasma levels of TylA in BALB/c mice following IP or PO dosing (100 mg/kg).

[5] = test system: Litomosoides sigmodontis; experiment: Litomosoides sigmodontis larval mouse model (worm length); assay type: in vivo, BALB/c mice; details: 35 days post-infection
Protocol: As described previously, female BALB/c mice or female jirds were infected at 6–8 weeks of age with L. sigmodontis larvae through the bites of Ornithonyssus bacoti mites. […] One day post infection, mice were dosed IP or PO with TylA (Sigma Aldrich, 200 mg/kg BID x 7 days), doxycycline hyclate (Sigma-Aldrich, 200 mg/kg BID x 14 days), or vehicle using a volume of 10 ml/kg. At 35 days post-infection mice were euthanized using an overdose of isoflurane; worms were recovered from the pleural cavity by pleural lavage, counted, sexed and staged for development into L4 and adult worms based on the difference of the buccal capsule through microscopic examination. Female worms were measured for length (mm) as a marker for development as previously described. Data were distributed in a non-parametric fashion, median and interquartile ranges are presented. For comparing the length of the female worms, the Mann-Whitney-U test was used to calculate statistical differences either against the vehicle treated or gold standard groups.

Molecule: CC[C@H]1OC(=O)C[C@@H](O)[C@H](C)[C@@H](O[C@@H]2O[C@H](C)[C@@H](O[C@H]3C[C@@](C)(O)[C@@H](O)[C@H](C)O3)[C@H](N(C)C)[C@H]2O)[C@@H](CC=O)C[C@@H](C)C(=O)/C=C/C(C)=C/[C@@H]1CO[C@@H]1O[C@H](C)[C@@H](O)[C@@H](OC)[C@H]1OC [1 (TylA), Tylosin A]
- EC50 ([1]; C6/36, Wolbachia-infected insect cells, geometric mean (N), each N a duplicate measurement): 28 nM
- C*8hr [2]: 0.5 ng/mL per mg/kg
- AUC* parent [2]: 9.6 ng-hr/ml per mg/kg
- C*8hr/ EC50 [2]: 0.02 ng/ml/nM per mg/kg
- AUC*/EC50 [2]: 0.34 ng-hr/ml/nM per mg/kg
- permeability [3]: < 0.1X10^-6 cm/sec
- drug levels IP arm relative to PO ([4]; BALB/c mice, 100 mg/kg IP or PO): > 30 fold
- length of recovered worms ([5]; 200 mg/kg IP BID x 7 days): notably shorter than controls
- length of recovered worms ([5]; 200 mg/kg PO BID x 7 days): minimal response

Molecule: CCCCC(=O)OC1C(OC2C(CC=O)CC(C)C(=O)C=CC(C)=CC(COC3OC(C)C(O)C(OC)C3OC)C(CC)OC(=O)CC(O)C2C)OC(C)C(OC2CC(C)(O)C(O)C(C)O2)C1N(C)C (stereo not shown) [Compound 2c]
- C*8hr [2]: 2.5 ng/mL per mg/kg
- AUC* parent [2]: 58 ng-hr/ml per mg/kg
- AUC* TylA (metabolite) [2]: 1.2 ng-hr/ml per mg/kg
- potency-weighted 8-hr drug level (C8hr/dose/EC50) relative to TylA ([2]; oral dosing): doubles
- potency-weighted AUC (AUC*/EC50) relative to TylA ([2]; oral dosing): ~ 2.6 fold
- improvement in plasma drug levels (AUC) over TylA ([2]; oral dosing): 6 fold
- metabolic stability of substituent / species observed in plasma ([2]; oral pharmacokinetic study): relatively metabolically stable
- C*8hr/ EC50 [2]: 0.04 ng/ml/nM per mg/kg
- AUC*/EC50 [2]: 0.89 ng-hr/ml/nM per mg/kg

Molecule: CCC1OC(=O)CC(O)C(C)C(OC2OC(C)C(OC3CC(C)(O)C(OC(=O)N(CC)CC)C(C)O3)C(N(C)C)C2OC(=O)C(C)C)C(CC=O)CC(C)C(=O)C=CC(C)=CC1COC1OC(C)C(O)C(OC)C1OC (stereo not shown) [Compound 4d]
- C*8hr [2]: 30 ng/mL per mg/kg
- AUC* parent [2]: 420 ng-hr/ml per mg/kg
- AUC* TylA (metabolite) [2]: 1.4 ng-hr/ml per mg/kg
- drug levels relative to 2'-OH partners 5c and 5d ([2]; oral dosing): more than 10 fold
- improvement in plasma drug levels (AUC) over TylA ([2]; oral dosing): 40–50 fold
- C*8hr/ EC50 [2]: 1.25 ng/ml/nM per mg/kg
- AUC*/EC50 [2]: 17.5 ng-hr/ml/nM per mg/kg

Molecule: CC[C@H]1OC(=O)C[C@@H](O)[C@H](C)[C@@H](O[C@@H]2O[C@H](C)[C@@H](O[C@H]3C[C@@](C)(O)[C@@H](OCc4ccc(F)cc4)[C@H](C)O3)[C@H](N(C)C)[C@H]2OC(=O)C(C)C)[C@@H](CC=O)C[C@@H](C)C(=O)/C=C/C(C)=C/[C@@H]1CO[C@@H]1O[C@H](C)[C@@H](O)[C@@H](OC)[C@H]1OC [Compound 4e]
- C*8hr [2]: 30 ng/mL per mg/kg
- AUC* parent [2]: 510 ng-hr/ml per mg/kg
- AUC* TylA (metabolite) [2]: <0.6 ng-hr/ml per mg/kg
- drug levels relative to 2'-OH partners 5c and 5d ([2]; oral dosing): more than 10 fold
- improvement in plasma drug levels (AUC) over TylA ([2]; oral dosing): 40–50 fold
- C*8hr/ EC50 [2]: 1.03 ng/ml/nM per mg/kg
- AUC*/EC50 [2]: 17.6 ng-hr/ml/nM per mg/kg

Molecule: CCCCC(=O)OC1C(C)OC(OC2C(C)OC(OC3C(CC=O)CC(C)C(=O)C=CC(C)=CC(COC4OC(C)C(O)C(OC)C4OC)C(CC)OC(=O)CC(O)C3C)C(O)C2N(C)C)CC1(C)O (stereo not shown) [Compound 5a]
- potency improvement (EC50) over TylA ([1]; EC50 lower than parent TylA): 25 fold
- AUC* parent [2]: <0.6 ng-hr/ml per mg/kg
- AUC* TylA (metabolite) [2]: 30 ng-hr/ml per mg/kg
- parent ester in plasma ([4]; mice, oral, any time point): no sign of parent is observed
- increase in oral drug levels upon 4"-acylation ([4]; mice, measured drug is deacylated metabolite TylA): ~ 3 fold

Molecule: CCC1OC(=O)CC(O)C(C)C(OC2OC(C)C(OC3CC(C)(O)C(OC(=O)C(C)(C)C)C(C)O3)C(N(C)C)C2O)C(CC=O)CC(C)C(=O)C=CC(C)=CC1COC1OC(C)C(O)C(OC)C1OC (stereo not shown) [Compound 5b]
- C*8hr [2]: 3.0 ng/mL per mg/kg
- AUC* parent [2]: 58 ng-hr/ml per mg/kg
- AUC* TylA (metabolite) [2]: <0.6 ng-hr/ml per mg/kg
- potency-weighted AUC (AUC*/EC50) relative to TylA ([2]; oral dosing): 30 fold
- improvement in plasma drug levels (AUC) over TylA ([2]; oral dosing): 6 fold
- C*8hr/ EC50 [2]: 0.56 ng/ml/nM per mg/kg
- AUC*/EC50 [2]: 10.7 ng-hr/ml/nM per mg/kg
- deacylated product TylA as share of total circulating drug ([2]; rat pharmacokinetic study, oral): < 1%

Molecule: CO[C@@H]1[C@@H](O[C@@H]2O[C@H](C)[C@@H](O[C@H]3C[C@@](C)(O)[C@@H](OC(=O)CC(C)C)[C@H](C)O3)[C@H](N(C)C)[C@H]2O)[C@@H](CC=O)C[C@@H](C)[C@@H](O)/C=C/C=C/C[C@@H](C)OC(=O)C[C@H]1O [leucomycin]
- activity against Wolbachia [1]: inactive

Molecule: CCC(=O)O[C@@H]1CC(=O)O[C@H](C)C/C=C/C=C/[C@H](O)[C@H](C)C[C@H](CC=O)[C@H](O[C@@H]2O[C@H](C)[C@@H](O[C@H]3C[C@@](C)(O)[C@@H](OC(=O)CC)[C@H](C)O3)[C@H](N(C)C)[C@H]2O)[C@H]1OC [midecamycin]
- activity against Wolbachia [1]: inactive

Molecule: josmycin
- activity against Wolbachia [1]: inactive

Molecule: spiramycin
- activity against Wolbachia [1]: inactive
